Assay results from patent US20260034094A1, “COMPOSITIONS AND METHODS FOR INDUCING FERROPTOSIS” (Kojin Therapeutics, Inc., priority 2022, published 2026).
Several values for one entry are separate records, joined by “and”; a condition that tells them apart may be missing. Equal values may be shown once. Read-outs that look alike come from different tables or passages of the source.

What was measured:
[1] = tested on: RKN cells; test: RKN cell profiling assay (cell viability, CellTiter-Glo); format: cell-based
Description: RKN cells were suspended in assay medium (F-12 medium supplemented with 10% FBS and penicillin/streptomycin) and seeded at 1,000 cells per well (30 μL total volume) in opaque white 384-well plates (Corning). Cells were allowed to adhere for 24 h at 37° C. (95% humidity, 5% CO2) and then exposed to compounds disclosed herein for 72 h, or in the present case, 96 h. DMSO stock solutions of compounds were added to cells using a D300e Digital Dispenser (Tecan). The final DMSO concentration in each well was normalized to 0.5% (v/v) after compound treatment. Cell viability was measured using CellTiter-Glo (Promega). After incubation for 15 min at room temperature, luminescence was measured using a PHERAstar FSX microplate reader (BMG Labtech). Ferroptosis rescue experiments were performed as described previously using cells treated with ferrostatin-1 (fer-1, 1.5 μM) when seeding assay plates. Dose-response data were analyzed to determine EC50 values with GraphPad Prism 9 software using a four-parameter logistic equation or CDD Vault (Collaborative Drug Discovery) using the Levenberg-Marquardt algorithm.

[2] = biological target: human recombinant GCL (Homo sapiens (Human), UniProt P48506); test: GCL enzyme profiling assay (ADP-Glo luminescence); format: biochemical
Description: The GCL enzyme assay was run in 50 mM HEPES, pH 7.5, containing 150 mM NaCl, 30 mM MgCl2, 0.5 mM EDTA, 1 mM DTT, 0.1 mg/mL BSA, and 0.02% or in the present case 0.2% F-127 in a total assay volume of 10 μL or 10 mL. Compound in pure DMSO was stamped in assay plates (Greiner black 384-well) or appropriate containers using a D300e digital dispenser (TECAN) and the final DMSO concentration was normalized to 1%. A 5 mL, or in the present case, 5 μL mixture of human recombinant GCL (final concentration: 5 nM) and ATP (final concentration: 0.6 mM) was added and the solution was incubated at room temperature (22° C.) for 1 h. The GCL enzyme reaction was initiated by addition of a 5 μL mixture of mono g-glutamate or in the present example, monosodium glutamate (final concentration: 1 mM) and a-aminobutyrate or α-aminobutyrate (final concentration: 1.2 mM). The reaction was stopped after 1 h or in the present case, 2 h by addition of 5 mL, or in the present case, 5 μL ADP GLO Reagent (Promega). The resulting solution was incubated for 2 h at room temperature. This was then followed by addition of 5 mL, or in the present case, 5 μL ADP GLO Detection. After incubation at room temperature for 30 min, the plates were read on a plate reader (PheraStar) using a luminescence protocol to quantify the GCL enzyme activity from each reaction solution. The data was analyzed using a four-parameter logistic equation to calculate IC50.

[3] = cell viability, read-out: Cell Killing EC50
[4] = human recombinant GCL, ADP-Glo, read-out: GCL IC50
[5] = 96 h, 96 h exposure, read-out: Cell Killing EC50
[6] = human recombinant GCL 5 nM, 1 h preincubation with ATP, read-out: GCL IC50

Sequence of human recombinant GCL (P48506 whole entry): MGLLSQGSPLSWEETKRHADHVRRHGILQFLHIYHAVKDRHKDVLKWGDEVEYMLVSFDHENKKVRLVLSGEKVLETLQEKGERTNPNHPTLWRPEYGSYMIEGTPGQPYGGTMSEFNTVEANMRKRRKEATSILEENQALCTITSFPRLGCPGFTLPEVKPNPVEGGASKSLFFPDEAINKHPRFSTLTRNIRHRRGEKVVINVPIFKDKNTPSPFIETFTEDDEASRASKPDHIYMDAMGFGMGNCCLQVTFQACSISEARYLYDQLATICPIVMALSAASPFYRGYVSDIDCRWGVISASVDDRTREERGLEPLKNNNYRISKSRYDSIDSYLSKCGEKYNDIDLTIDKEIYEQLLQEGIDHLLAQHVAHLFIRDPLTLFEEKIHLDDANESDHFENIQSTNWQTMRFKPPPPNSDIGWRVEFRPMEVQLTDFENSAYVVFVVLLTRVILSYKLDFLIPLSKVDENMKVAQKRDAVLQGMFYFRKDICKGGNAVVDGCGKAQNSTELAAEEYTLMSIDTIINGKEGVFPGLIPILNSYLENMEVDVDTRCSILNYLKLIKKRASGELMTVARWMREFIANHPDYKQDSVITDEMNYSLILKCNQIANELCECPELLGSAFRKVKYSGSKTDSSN

SMILES	EC50 [1, 5]	IC50 [2, 6]	further results
C[C@](O)(CCS(=N)(=O)CC[C@H](N)C(=O)O)C(F)(F)F (single isomer, unassigned) [Compound 325]	–	–	EC50 [1, 3]: ≥ 1 mM; IC50 [2, 4]: > 2 mM
N=S(=O)(CC[C@H](N)C(=O)O)CC[C@H](O)C(F)(F)F (single isomer, unassigned) [Compound 326]	–	–	EC50 [1, 3]: < 1 mM; IC50 [2, 4]: ≤ 0.02 mM
N=S(=O)(CC[C@H](N)C(=O)O)CC[C@H](O)C(F)(F)F (single isomer, unassigned) [Compound 327]	–	–	EC50 [1, 3]: ≥ 1 mM; IC50 [2, 4]: > 2 mM
N=S(=O)(CC[C@@H](O)C(F)(F)F)CC[C@H](N)C(=O)O (single isomer, unassigned) [Compound 328]	–	–	EC50 [1, 3]: < 1 mM; IC50 [2, 4]: ≤ 0.02 mM
N=S(=O)(CC[C@@H](O)C(F)(F)F)CC[C@H](N)C(=O)O (single isomer, unassigned) [Compound 329]	–	–	EC50 [1, 3]: ≥ 1 mM; IC50 [2, 4]: > 2 mM
N=[S@](=O)(CC[C@H](N)C(=O)O)CCC(O)(c1ccccc1)C(F)(F)F (single isomer, unassigned) [Compound 345]	–	–	EC50 [1, 3]: ≥ 1 mM; IC50 [2, 4]: > 2 mM
N=[S@@](=O)(CC[C@H](N)C(=O)O)CCC1(c2ccccc2)CCC1 (single isomer, unassigned) [Compound 392]	–	–	EC50 [1, 3]: < 1 mM; IC50 [2, 4]: ≤ 0.02 mM
N=S(=O)(CC[C@H](N)C(=O)O)CCC(O)(c1ccc(-c2ccc(Cl)cc2Cl)cn1)C(F)(F)F (single isomer, unassigned) [Compound 464]	–	–	EC50 [1, 3]: ≥ 1 mM; IC50 [2, 4]: 0.02 to 2 mM
N=S(=O)(CCc1ccc(Cl)cc1)CC[C@H](N)C(=O)O (stereo partly drawn) [Compound 1, (2S)-2-amino-4-(2-(4-chlorophenyl)ethylsulfonimidoyl)butanoic acid]	≥ 1 mM	≤ 0.02 mM	–
N=S(=O)(CCc1ccccc1)CC[C@H](N)C(=O)O (stereo partly drawn) [Compound 2, (2S)-2-amino-4-(2-phenylethylsulfonimidoyl)butanoic acid]	≥ 1 mM	0.02 to 2 mM	–
N=S(=O)(CCc1cccc(C(F)(F)F)c1)CC[C@H](N)C(=O)O (some centres unmarked) [Compound 3]	≥ 1 mM	0.02 to 2 mM	–
N=S(=O)(CCc1cccc(OC(F)(F)F)c1)CC[C@H](N)C(=O)O (some centres unmarked) [Compound 4]	≥ 1 mM	0.02 to 2 mM	–
N=S(=O)(CCc1ccc(F)c(F)c1)CC[C@H](N)C(=O)O (some centres unmarked) [Compound 5]	≥ 1 mM	≤ 0.02 mM	–
N=S(=O)(CCc1ccncc1)CC[C@H](N)C(=O)O (some centres unmarked) [Compound 6]	≥ 1 mM	> 2 mM and 0.02 to 2 mM	IC50 ([2]; human recombinant GCL 5 nM, 1 h preincubation with ATP, read-out: GCL IC50 (mM), individual values in parentheses): 2.27 mM and > 1.62 mM
N=S(=O)(CCc1cn[nH]c1)CC[C@H](N)C(=O)O (some centres unmarked) [Compound 8]	≥ 1 mM	0.02 to 2 mM	–
N=S(=O)(CCc1cnoc1)CC[C@H](N)C(=O)O (some centres unmarked) [Compound 9]	< 1 mM	0.02 to 2 mM	–
N=S(=O)(CCc1nccs1)CC[C@H](N)C(=O)O (some centres unmarked) [Compound 10]	≥ 1 mM	> 2 mM	–
Cc1ccc(CCS(=N)(=O)CC[C@H](N)C(=O)O)cc1 (some centres unmarked) [Compound 11]	≥ 1 mM	≤ 0.02 mM	–
COc1ccc(CCS(=N)(=O)CC[C@H](N)C(=O)O)cc1 (some centres unmarked) [Compound 12]	≥ 1 mM	0.02 to 2 mM	–
N=S(=O)(CCc1ccc(Cl)c(Cl)c1)CC[C@H](N)C(=O)O (some centres unmarked) [Compound 13]	≥ 1 mM	≤ 0.02 mM	–
N=S(=O)(CCc1ccccc1C(F)(F)F)CC[C@H](N)C(=O)O (some centres unmarked) [Compound 15]	≥ 1 mM	≤ 0.02 mM	EC50 ([1]; 96 h, 96 h exposure, read-out: Cell Killing EC50 (mM), individual values in parentheses): 1.2 mM; EC50 ([1]; 96 h exposure, read-out: Cell Killing EC50 (mM), individual values in parentheses): 0.97 mM
N=S(=O)(CCc1cccc(F)c1F)CC[C@H](N)C(=O)O (some centres unmarked) [Compound 16]	< 1 mM	≤ 0.02 mM	–
N=S(=O)(CCc1nc(-c2ccccc2)cs1)CC[C@H](N)C(=O)O (some centres unmarked) [Compound 17]	≥ 1 mM	0.02 to 2 mM	–

SMILES	EC50 [1, 5]	IC50 [2, 6]	further results
N=S(=O)(CCc1cccc2c1OC(F)(F)O2)CC[C@H](N)C(=O)O (some centres unmarked) [Compound 18]	≥ 1 mM	0.02 to 2 mM	–
N=S(=O)(CCc1ccccc1Cl)CC[C@H](N)C(=O)O (some centres unmarked) [Compound 19]	< 1 mM	≤ 0.02 mM	–
COc1ccccc1CCS(=N)(=O)CC[C@H](N)C(=O)O (some centres unmarked) [Compound 20]	≥ 1 mM	0.02 to 2 mM	–
N=S(=O)(CCc1ccccc1O)CC[C@H](N)C(=O)O (some centres unmarked) [Compound 21]	< 1 mM	≤ 0.02 mM	–
N=S(=O)(CCc1ccccc1F)CC[C@H](N)C(=O)O (some centres unmarked) [Compound 23]	≥ 1 mM	0.02 to 2 mM	–
N=S(=O)(CCc1cccc(F)c1)CC[C@H](N)C(=O)O (some centres unmarked) [Compound 24]	≥ 1 mM	≤ 0.02 mM	–
N=S(=O)(CCc1cccc(Cl)c1Cl)CC[C@H](N)C(=O)O (some centres unmarked) [Compound 25]	≥ 1 mM	0.02 to 2 mM	–
Cc1c(F)cccc1CCS(=N)(=O)CC[C@H](N)C(=O)O (some centres unmarked) [Compound 26]	< 1 mM	≤ 0.02 mM	–
Cc1cccc(CCS(=N)(=O)CC[C@H](N)C(=O)O)c1C (some centres unmarked) [Compound 27]	≥ 1 mM	0.02 to 2 mM	–
N#Cc1ccccc1CCS(=N)(=O)CC[C@H](N)C(=O)O (some centres unmarked) [Compound 30]	≥ 1 mM	≤ 0.02 mM	–
N=S(=O)(CCc1cccc2ccccc12)CC[C@H](N)C(=O)O (some centres unmarked) [Compound 31]	≥ 1 mM	≤ 0.02 mM	–
Cc1cccc(C)c1CCS(=N)(=O)CC[C@H](N)C(=O)O (some centres unmarked) [Compound 32]	≥ 1 mM	0.02 to 2 mM	–
CCc1ccccc1CCS(=N)(=O)CC[C@H](N)C(=O)O (some centres unmarked) [Compound 33]	≥ 1 mM	≤ 0.02 mM	–
N=S(=O)(CCc1ccccc1C1CC1)CC[C@H](N)C(=O)O (some centres unmarked) [Compound 34]	≥ 1 mM	0.02 to 2 mM	–
Cc1noc(C)c1CCS(=N)(=O)CC[C@H](N)C(=O)O (some centres unmarked) [Compound 35]	≥ 1 mM	0.02 to 2 mM	–
N=S(=O)(CCc1ccc(C(F)(F)F)cc1C(F)(F)F)CC[C@H](N)C(=O)O (some centres unmarked) [Compound 36]	< 1 mM	≤ 0.02 mM	–
Cc1ccc(CCS(=N)(=O)CC[C@H](N)C(=O)O)c(F)c1 (some centres unmarked) [Compound 37]	≥ 1 mM	≤ 0.02 mM	–
CC(CS(=N)(=O)CC[C@H](N)C(=O)O)c1ccccc1Cl (some centres unmarked) [Compound 38]	≥ 1 mM	0.02 to 2 mM	–
Cc1ccc(Cl)c(CCS(=N)(=O)CC[C@H](N)C(=O)O)c1 (some centres unmarked) [Compound 39]	≥ 1 mM	≤ 0.02 mM	–
Cc1ccc(C(=O)O)cc1CCS(=N)(=O)CC[C@H](N)C(=O)O (some centres unmarked) [Compound 41]	≥ 1 mM	0.02 to 2 mM	–
Cc1cccc(Cl)c1CCS(=N)(=O)CC[C@H](N)C(=O)O (some centres unmarked) [Compound 42]	≥ 1 mM	0.02 to 2 mM	–
Cc1ccc(CCS(=N)(=O)CC[C@H](N)C(=O)O)c(Cl)c1 (some centres unmarked) [Compound 43]	≥ 1 mM	≤ 0.02 mM	–
Cc1ccc(C(F)(F)F)c(CCS(=N)(=O)CC[C@H](N)C(=O)O)c1 (some centres unmarked) [Compound 44]	≥ 1 mM	≤ 0.02 mM	–
